Reference: ChEMBL document CHEMBL1147989, “Synthesis and structure-activity relationships of 4-hydroxy-4-phenylpiperidines as nociceptin receptor ligands: Part 2” (Bioorg Med Chem Lett, 2007)

Experiments:
[1] = target: T1, Nociceptin receptor (Homo sapiens, UniProt P41146); assay: Displacement of [125I][Tyr14]nociceptin FQ from human NOP receptor expressed in CHO cell membrane; type: cell membranes
[2] = target: Delta-type opioid receptor (Homo sapiens, UniProt P41143); assay: Displacement of [3H]diprenorphine from human DOP receptor expressed in CHO cell membrane; type: cell membranes
[3] = target: Kappa-type opioid receptor (Homo sapiens, UniProt P41145); assay: Displacement of [3H]diprenorphine from human KOP receptor expressed in CHO cell membrane; type: cell membranes
[4] = target: Mu-type opioid receptor (Homo sapiens, UniProt P35372); assay: Displacement of [3H]diprenorphine from human MOP receptor expressed in CHO cell membrane; type: cell membranes
[5] = target: T1, Nociceptin receptor; assay: Agonist activity at human NOP receptor transfected in CHO cells assessed as stimulation of [35S]GTP-gamma-S at 100 uM; type: functional, cell-based
[6] = target: T1, Nociceptin receptor; assay: Agonist activity at human NOP receptor transfected in CHO cells assessed as stimulation of [35S]GTPgammaS at 1 uM; type: functional, cell-based
[7] = target: T1, Nociceptin receptor; assay: Agonist activity at human NOP receptor transfected in CHO cells assessed as stimulation of [35S]GTP-gamma-S at 0.1 uM; type: functional, cell-based
[8] = target: T1, Nociceptin receptor; assay: Activity at human NOP receptor transfected in CHO cells assessed as inhibition of [35S]GTPgammaS at 10 uM; type: functional, cell-based
[9] = target: T1, Nociceptin receptor; assay: Activity at human NOP receptor transfected in CHO cells assessed as inhibition of [35S]GTP-gamma-S at 1 uM; type: functional, cell-based

Kappa-type opioid receptor, sequence (P41145 whole entry): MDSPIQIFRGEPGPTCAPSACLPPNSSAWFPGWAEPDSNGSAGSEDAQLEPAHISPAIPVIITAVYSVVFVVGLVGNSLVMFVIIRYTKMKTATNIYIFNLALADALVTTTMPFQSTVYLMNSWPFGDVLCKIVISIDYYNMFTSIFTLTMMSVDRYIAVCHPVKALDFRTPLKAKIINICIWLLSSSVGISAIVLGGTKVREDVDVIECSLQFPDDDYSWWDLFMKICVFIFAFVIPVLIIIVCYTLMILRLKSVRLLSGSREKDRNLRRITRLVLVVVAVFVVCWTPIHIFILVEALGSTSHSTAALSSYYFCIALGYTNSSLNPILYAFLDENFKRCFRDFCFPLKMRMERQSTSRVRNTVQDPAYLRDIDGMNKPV
Mu-type opioid receptor, sequence (P35372 whole entry): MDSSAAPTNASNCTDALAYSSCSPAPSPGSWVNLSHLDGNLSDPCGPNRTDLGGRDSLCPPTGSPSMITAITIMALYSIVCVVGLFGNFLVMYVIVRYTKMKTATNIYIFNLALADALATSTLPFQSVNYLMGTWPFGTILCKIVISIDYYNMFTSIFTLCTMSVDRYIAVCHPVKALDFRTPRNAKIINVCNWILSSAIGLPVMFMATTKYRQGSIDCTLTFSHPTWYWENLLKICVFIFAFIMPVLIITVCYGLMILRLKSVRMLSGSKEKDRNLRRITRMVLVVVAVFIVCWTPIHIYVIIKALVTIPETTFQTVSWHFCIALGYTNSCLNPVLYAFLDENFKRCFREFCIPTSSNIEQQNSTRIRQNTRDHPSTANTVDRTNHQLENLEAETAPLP
Delta-type opioid receptor, sequence (P41143 whole entry): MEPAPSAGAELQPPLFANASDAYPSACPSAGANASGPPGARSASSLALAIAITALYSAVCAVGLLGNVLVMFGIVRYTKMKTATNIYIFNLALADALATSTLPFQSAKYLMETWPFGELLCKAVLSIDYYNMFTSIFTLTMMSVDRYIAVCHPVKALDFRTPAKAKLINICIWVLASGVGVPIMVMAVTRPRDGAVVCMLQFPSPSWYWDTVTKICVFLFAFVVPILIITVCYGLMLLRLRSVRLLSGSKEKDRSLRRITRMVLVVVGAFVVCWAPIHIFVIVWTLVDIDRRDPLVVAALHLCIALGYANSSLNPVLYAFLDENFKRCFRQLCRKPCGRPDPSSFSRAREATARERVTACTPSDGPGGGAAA
T1 sequence (P41146 whole entry): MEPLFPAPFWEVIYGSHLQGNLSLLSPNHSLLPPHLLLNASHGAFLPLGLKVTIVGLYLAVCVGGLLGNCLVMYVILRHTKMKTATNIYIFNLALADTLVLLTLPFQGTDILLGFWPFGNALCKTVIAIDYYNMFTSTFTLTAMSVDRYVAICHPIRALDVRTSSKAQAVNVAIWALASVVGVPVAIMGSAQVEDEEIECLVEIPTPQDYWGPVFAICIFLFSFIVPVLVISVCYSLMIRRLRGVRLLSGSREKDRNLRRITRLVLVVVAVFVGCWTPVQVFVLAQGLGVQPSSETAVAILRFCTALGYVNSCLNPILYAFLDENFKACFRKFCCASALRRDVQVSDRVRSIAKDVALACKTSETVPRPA

Ki [1] [nM] | Ki [2] [nM] | Ki [3] [nM] | Ki [4] [nM] | Structure (SMILES) | further results
14 | 3320 | 759 | 771 | OC1(c2ccc(F)cc2)CCN(C(c2ccccc2)c2ccccc2)CC1 | –
23 | 5610 | 1990 | 705 | OC1(c2cccc(F)c2)CCN(C(c2ccccc2)c2ccccc2)CC1 | Activity [5]: 61%
313 | 45600 | 13200 | 11500 | OC1(c2ccccn2)CCN(C(c2ccccc2)c2ccccc2)CC1 | –
12 | 2440 | 330 | 304 | CCNC(=O)NCc1ccccc1C1(O)CCN(C(c2ccccc2Cl)c2ccccc2Cl)CC1 | –
110 | 8900 | 1060 | 502 | Cc1ccc(C(c2ccc(C)cc2)N2CCC(O)(c3ccccc3CN)CC2)cc1 | –
11 | 1670 | 818 | 74 | Cc1ccccc1C1(O)CCN(C(c2ccccc2)c2ccccc2)CC1 | Activity [5]: 69%
34 | 5610 | 1740 | 589 | OC1(c2ccccc2F)CCN(C(c2ccccc2)c2ccccc2)CC1 | –
588 | 19200 | 10300 | 11100 | COc1ccc(C2(O)CCN(C(c3ccccc3)c3ccccc3)CC2)cc1 | –
0.4 | 1210 | 15 | 2 | CCCCC(c1ccccc1)N1CCC(O)(c2ccccc2CN)CC1 (configuration not stated) | –
1.8 | 3200 | 278 | 616 | NCc1ccccc1C1(O)CCN(C(c2ccccc2Br)c2ccccc2Br)CC1 | Activity [6]: 104%
4.1 | 518 | 174 | 163 | CC(C)S(=O)(=O)NCc1ccccc1C1(O)CCN(C(c2ccccc2Cl)c2ccccc2Cl)CC1 | –
27 | 7800 | 1150 | 273 | Cc1cccc(C2(O)CCN(C(c3ccccc3)c3ccccc3)CC2)c1 | –
1450 | 28400 | 61000 | 8380 | N#Cc1ccc(C2(O)CCN(C(c3ccccc3)c3ccccc3)CC2)cc1 | –
674 | 3990 | 2090 | 3080 | NCc1ccccc1C1(O)CCN(C(c2ccc(Cl)cc2)c2ccc(Cl)cc2)CC1 | –
0.7 | 3820 | 255 | 167 | CNCc1ccccc1C1(O)CCN(C(c2ccccc2Cl)c2ccccc2Cl)CC1 | –
5.9 | 2910 | 323 | 120 | OC1(c2ccccc2CN2CCOCC2)CCN(C(c2ccccc2Cl)c2ccccc2Cl)CC1 | –
48 | 8450 | 3410 | 1730 | OC1(c2cccs2)CCN(C(c2ccccc2)c2ccccc2)CC1 | –
2 | 1990 | 215 | 198 | CNC(=O)NCc1ccccc1C1(O)CCN(C(c2ccccc2Cl)c2ccccc2Cl)CC1 | –
1670 | 13800 | 1800 | 3360 | OC1(CCCc2ccccc2)CCN(C(c2ccccc2)c2ccccc2)CC1 | –
16 | 4360 | 2770 | 186 | OCc1ccccc1C1(O)CCN(C(c2ccccc2)c2ccccc2)CC1 | –
180 | 9590 | 3670 | 2990 | COc1cccc(C2(O)CCN(C(c3ccccc3)c3ccccc3)CC2)c1 | –
0.6 | 3160 | 186 | 353 | CC(C)S(=O)(=O)N1CCN(Cc2ccccc2C2(O)CCN(C(c3ccccc3Cl)c3ccccc3Cl)CC2)CC1 | –

Ki [1] [nM] | Ki [2] [nM] | Ki [3] [nM] | Ki [4] [nM] | Structure (SMILES) | further results
0.7 | 2870 | 725 | 28 | Cc1ccccc1C(c1ccccc1)N1CCC(O)(c2ccccc2CN)CC1 (configuration not stated) | Activity [7]: 119%
1270 | – | – | – | OC1(c2nccs2)CCN(C(c2ccccc2)c2ccccc2)CC1 | –
1.1 | 3290 | 279 | 72 | NCc1ccccc1C1(O)CCN(C(c2ccccc2)c2ccccc2Br)CC1 (configuration not stated) | Activity [6]: 115%
4540 | – | – | – | CN(C)c1ccc(C2(O)CCN(C(c3ccccc3)c3ccccc3)CC2)cc1 | –
0.9 | 1590 | 146 | 351 | CCS(=O)(=O)N1CCN(Cc2ccccc2C2(O)CCN(C(c3ccccc3Cl)c3ccccc3Cl)CC2)CC1 | –
1.6 | 13900 | 1660 | 125 | NCc1ccccc1C1(O)CCN(C(c2ccccc2)c2ccccc2)CC1 | Ki ([1]; cho): 1.6 nM; Ki ([2]; cho): 13900 nM; Ki ([3]; cho): 1660 nM; Ki ([4]; cho): 125 nM
15 | 777 | 122 | 271 | CCCS(=O)(=O)NCc1ccccc1C1(O)CCN(C(c2ccccc2Cl)c2ccccc2Cl)CC1 | –
1.9 | 1170 | 261 | 145 | OC1(c2ccccc2CN2CCNCC2)CCN(C(c2ccccc2Cl)c2ccccc2Cl)CC1 | –
0.5 | 8440 | 450 | 190 | Cc1ccccc1C(c1ccccc1C)N1CCC(O)(c2ccccc2CN)CC1 | Activity [6]: 94%
0.5 | 3700 | 425 | 72 | NCc1ccccc1C1(O)CCN(C(c2ccccc2)c2ccccc2Cl)CC1 (configuration not stated) | Activity [7]: 116%
1750 | 33300 | 19700 | 11400 | CCCc1ccc(C2(O)CCN(C(c3ccccc3)c3ccccc3)CC2)cc1 | –
5.5 | 23400 | 1350 | 181 | CC1(C)CCC(N2CCC(O)(c3ccccc3CN)CC2)c2ccccc21 (configuration not stated) | inhibition [8]: 43%
85 | 4390 | 4160 | 983 | COc1ccccc1C1(O)CCN(C(c2ccccc2)c2ccccc2)CC1 | –
455 | – | – | – | NCc1ccccc1C1(O)CCN(Cc2ccccc2)CC1 | –
4.6 | 99500 | 664 | 452 | NCc1ccccc1C1(O)CCN(CC2CCCCCC2)CC1 | inhibition [9]: 67%
9160 | – | – | – | CCCCc1ccc(C2(O)CCN(C(c3ccccc3)c3ccccc3)CC2)cc1 | –
24 | 6360 | 1700 | 936 | OC1(c2ccc(Cl)cc2)CCN(C(c2ccccc2)c2ccccc2)CC1 | –
9.6 | 9380 | 771 | 616 | NCc1ccccc1C1(O)CCN(C(c2cccc(F)c2)c2cccc(F)c2)CC1 | –
15 | 8880 | 2570 | 756 | Cc1ccsc1C1(O)CCN(C(c2ccccc2)c2ccccc2)CC1 | –
1280 | 24900 | 11400 | 3430 | CCc1ccc(C2(O)CCN(C(c3ccccc3)c3ccccc3)CC2)cc1 | –
2.2 | 1700 | 139 | 190 | CN1CCN(Cc2ccccc2C2(O)CCN(C(c3ccccc3Cl)c3ccccc3Cl)CC2)CC1 | –

Structure (SMILES) | Ki [1] [nM] | Ki [2] [nM] | Ki [3] [nM] | Ki [4] [nM] | further results
OC1(Cc2ccccc2)CCN(C(c2ccccc2)c2ccccc2)CC1 | 2180 | 15000 | 1440 | 10400 | –
OC1(c2ccco2)CCN(C(c2ccccc2)c2ccccc2)CC1 | 136 | 14500 | 9640 | 4550 | –
OC1(C2CCCCC2)CCN(C(c2ccccc2)c2ccccc2)CC1 | 17 | 8110 | 387 | 407 | Activity [5]: 121%
CCCCC1(O)CCN(C(c2ccccc2)c2ccccc2)CC1 | 23 | 18800 | 4560 | 272 | –
Cc1ccc(C2(O)CCN(C(c3ccccc3)c3ccccc3)CC2)cc1 | 55 | 12100 | 4050 | 940 | –
CCCCCCC1(O)CCN(C(c2ccccc2)c2ccccc2)CC1 | 1150 | 17900 | 9220 | 8900 | –
CC(C)(C)C1(O)CCN(C(c2ccccc2)c2ccccc2)CC1 | 62 | 56600 | 1070 | 3600 | –
CC(C)C1(O)CCN(C(c2ccccc2)c2ccccc2)CC1 | 433 | 52800 | 7390 | 13200 | –
CCCCCC(c1ccccc1)N1CCC(O)(c2ccccc2CN)CC1 (configuration not stated) | 0.5 | 606 | 30 | 2 | –
OC1(C2CC2)CCN(C(c2ccccc2)c2ccccc2)CC1 | 376 | 131000 | 26400 | 18400 | –
OC1(c2ccc(Br)cc2)CCN(C(c2ccccc2)c2ccccc2)CC1 | 51 | 15200 | 2610 | 1060 | –
NCc1ccccc1C1(O)CCN(C(c2ccccc2F)c2ccccc2F)CC1 | 0.5 | 3700 | 116 | 37 | –
NCc1ccccc1C1(O)CCN(C(c2ccccc2Cl)c2ccccc2Cl)CC1 | 0.5 | 3000 | 747 | 249 | Activity [6]: 102%
